Assay results published in patent publication US8530519B2, “Method for promoting upper gastrointestinal bicarbonate secretion” (Sucampo AG, priority 2006, dated 2013).

Experiments:
male Wistar rats = assay: Effect on bicarbonate secretion into bile in rats after oral dosing; type: in vivo, rat
Experimental: The effect of Compound A (13,14-dihydro-15-keto-16,16-difluoro-18(S)-methyl-PGE1) on Gastrointestinal bicarbonate secretion was studied.
Seven weeks old male Wistar rats were used in this study. Compound A at a dose of 100 μg/kg was administered orally to the animals three times daily for 7 days. Control animals received an equal volume of the vehicle (distilled water containing 0.01% polysorbate 80 and 0.5% ethanol). On the next morning of the final administration (about 17 hours after the final administration), a polyethylene catheter (PE10, Becton Dickinson and Company) was inserted into the common bile duct of the animal under ether anesthesia. The animals were placed into a Borrmann's cage individually and allowed to recover from the anesthesia for 1 hour. Bile was collected for 1 hour between 1 and 2 hours after inserting the catheter. The amount of bicarbonate (HCO3^−) in the bile was measured with an automated pH/blood gas analyzer (model 170, Ciba Corning Diagnostics Corp.).

[1] = test system: PG receptors such as EP and FP receptors; conditions: Journal of Ocular Pharmacology and Therapeutics 17(5), 433-441, 2001; cited from earlier work

CC[C@H](C)CC(F)(F)C(=O)CC[C@H]1[C@H](O)CC(=O)[C@@H]1CCCCCCC(=O)O [Compound A, 13,14-dihydro-15-keto-16,16-difluoro-18(S)-methyl-PGE1]
amount of bicarbonate secreted into the bile compared with the control group (male Wistar rats; 100 μg/kg orally three times daily for 7 days, Wistar rats): increased significantly | Bicarbonate secretion Mean ± S.E. (male Wistar rats; 100 μg/kg p.o., TID for 7 days, bile collected for 1 hour, about 17 hours after the final administration, n=7, *p < 0.05 compared with control group (control 10.16 ± 0.81)): 13.33 ± 1.00* μmol/hr/100 g body weight

CCCCCCCC(=O)CC[C@@H]1[C@@H](C/C=C\CCCC(=O)OC(C)C)[C@@H](O)C[C@H]1O [unoprostone isopropyl]
affinity for PG receptors such as EP and FP receptors [1]: does not have affinity
